Some targets named below: D(3) dopamine receptor (Homo sapiens, UniProt P35462); D(1A) dopamine receptor (Homo sapiens, UniProt P21728); Mu-type opioid receptor (Homo sapiens, UniProt P35372); Histamine H3 receptor (Homo sapiens, UniProt Q9Y5N1).
Test [1] concerns the target 3',5'-cyclic-AMP phosphodiesterase 4A (Homo sapiens, UniProt P27815). The format is functional.
Test [2] deals with Voltage-gated inwardly rectifying potassium channel KCNH2 (Homo sapiens, UniProt Q12809). Type of test: functional. The conditions noted are these: read-out: AC50.
Test [3] deals with T1, Prostaglandin G/H synthase 1 (Homo sapiens, UniProt P23219). Type of test: functional.
Test [4] deals with 5-hydroxytryptamine receptor 2B (Homo sapiens, UniProt P41595). The format is functional, cell-based.
The target of test [5] is T2, Muscarinic acetylcholine receptor M2 (Homo sapiens, UniProt P08172).
T2 sequence (P08172 whole entry): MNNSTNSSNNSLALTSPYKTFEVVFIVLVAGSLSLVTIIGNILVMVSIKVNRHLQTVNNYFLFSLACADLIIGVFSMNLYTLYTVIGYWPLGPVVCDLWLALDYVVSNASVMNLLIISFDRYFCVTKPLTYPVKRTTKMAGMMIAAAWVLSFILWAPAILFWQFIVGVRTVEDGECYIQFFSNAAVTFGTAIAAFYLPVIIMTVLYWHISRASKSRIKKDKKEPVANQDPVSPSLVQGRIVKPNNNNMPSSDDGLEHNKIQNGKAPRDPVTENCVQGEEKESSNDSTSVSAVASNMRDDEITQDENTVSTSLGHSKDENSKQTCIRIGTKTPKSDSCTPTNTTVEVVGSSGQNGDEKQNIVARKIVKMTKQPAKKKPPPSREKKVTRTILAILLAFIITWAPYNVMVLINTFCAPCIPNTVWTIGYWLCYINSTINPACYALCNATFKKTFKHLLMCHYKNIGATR

Test [6] addresses T1, Prostaglandin G/H synthase 1. Type of test: functional. The source holds these as a separate data set.
The target in test [7] is T3, 5-hydroxytryptamine receptor 1A (Homo sapiens, UniProt P08908).
T3 sequence (P08908 whole entry): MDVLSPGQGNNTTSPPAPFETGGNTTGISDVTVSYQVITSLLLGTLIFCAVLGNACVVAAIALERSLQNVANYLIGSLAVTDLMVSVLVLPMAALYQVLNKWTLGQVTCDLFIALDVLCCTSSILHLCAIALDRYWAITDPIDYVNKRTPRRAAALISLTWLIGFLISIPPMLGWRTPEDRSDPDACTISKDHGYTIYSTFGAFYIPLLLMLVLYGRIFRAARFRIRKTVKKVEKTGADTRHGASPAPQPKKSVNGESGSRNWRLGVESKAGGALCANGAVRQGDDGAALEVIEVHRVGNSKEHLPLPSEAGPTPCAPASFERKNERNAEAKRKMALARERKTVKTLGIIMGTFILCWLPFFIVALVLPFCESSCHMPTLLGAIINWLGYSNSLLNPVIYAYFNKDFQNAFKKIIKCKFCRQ

Test [8] concerns the target Sodium-dependent noradrenaline transporter (Homo sapiens, UniProt P23975).
Test [9] addresses cGMP-inhibited 3',5'-cyclic phosphodiesterase 3A (Homo sapiens, UniProt Q14432). The format is functional.
The target in test [10] is T4, Thromboxane A2 receptor (Homo sapiens, UniProt P21731).
T4 sequence (P21731 whole entry): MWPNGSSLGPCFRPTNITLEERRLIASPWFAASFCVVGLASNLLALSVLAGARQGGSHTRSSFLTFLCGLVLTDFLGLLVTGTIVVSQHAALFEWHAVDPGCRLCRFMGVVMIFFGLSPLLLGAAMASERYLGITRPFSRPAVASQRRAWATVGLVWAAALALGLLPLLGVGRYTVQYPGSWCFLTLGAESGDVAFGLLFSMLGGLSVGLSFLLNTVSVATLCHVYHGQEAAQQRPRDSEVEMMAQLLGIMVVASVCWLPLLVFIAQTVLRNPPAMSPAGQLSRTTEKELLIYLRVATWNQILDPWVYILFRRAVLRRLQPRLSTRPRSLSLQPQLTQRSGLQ
Type of test: functional, cell-based.

For test [11], the target named is T5, Amine oxidase [flavin-containing] A (Homo sapiens, UniProt P21397).
T5 sequence (P21397 whole entry): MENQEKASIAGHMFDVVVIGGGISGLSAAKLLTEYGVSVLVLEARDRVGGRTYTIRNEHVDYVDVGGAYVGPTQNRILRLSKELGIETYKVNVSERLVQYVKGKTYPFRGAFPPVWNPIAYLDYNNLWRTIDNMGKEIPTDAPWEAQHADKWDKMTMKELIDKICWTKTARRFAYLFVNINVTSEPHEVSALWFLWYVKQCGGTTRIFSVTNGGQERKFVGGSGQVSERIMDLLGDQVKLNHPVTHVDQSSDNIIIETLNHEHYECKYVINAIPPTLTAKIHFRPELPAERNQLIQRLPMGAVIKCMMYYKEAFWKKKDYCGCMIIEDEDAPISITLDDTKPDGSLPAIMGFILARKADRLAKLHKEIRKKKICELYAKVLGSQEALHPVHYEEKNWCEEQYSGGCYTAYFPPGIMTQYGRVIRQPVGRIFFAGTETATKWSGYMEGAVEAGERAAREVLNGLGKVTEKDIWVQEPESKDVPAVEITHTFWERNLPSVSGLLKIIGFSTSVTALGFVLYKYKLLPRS
Type of test: functional.

The target of test [12] is T4, Thromboxane A2 receptor. Type of test: functional, cell-based. The source holds these as a separate data set.
The next test deals with Acetylcholinesterase (Homo sapiens, UniProt P22303). Type of test: functional.
In test [13] the target is Sodium-dependent dopamine transporter (Homo sapiens, UniProt Q01959).
Further: assay procedure not described here.

Chain of 5-hydroxytryptamine receptor 2B (P41595 whole entry): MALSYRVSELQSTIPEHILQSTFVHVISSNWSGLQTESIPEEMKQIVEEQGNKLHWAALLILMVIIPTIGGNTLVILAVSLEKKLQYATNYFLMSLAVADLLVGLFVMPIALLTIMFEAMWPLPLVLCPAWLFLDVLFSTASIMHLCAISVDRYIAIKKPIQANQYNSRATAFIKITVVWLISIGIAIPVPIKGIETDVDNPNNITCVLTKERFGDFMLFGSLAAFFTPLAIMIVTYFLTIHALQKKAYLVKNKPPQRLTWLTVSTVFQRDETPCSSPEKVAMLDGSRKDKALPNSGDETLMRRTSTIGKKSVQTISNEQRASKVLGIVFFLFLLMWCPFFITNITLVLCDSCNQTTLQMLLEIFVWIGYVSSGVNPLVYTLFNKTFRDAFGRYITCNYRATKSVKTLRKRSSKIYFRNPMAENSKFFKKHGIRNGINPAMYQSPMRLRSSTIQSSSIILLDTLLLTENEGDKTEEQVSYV
Chain of D(1A) dopamine receptor (P21728 whole entry): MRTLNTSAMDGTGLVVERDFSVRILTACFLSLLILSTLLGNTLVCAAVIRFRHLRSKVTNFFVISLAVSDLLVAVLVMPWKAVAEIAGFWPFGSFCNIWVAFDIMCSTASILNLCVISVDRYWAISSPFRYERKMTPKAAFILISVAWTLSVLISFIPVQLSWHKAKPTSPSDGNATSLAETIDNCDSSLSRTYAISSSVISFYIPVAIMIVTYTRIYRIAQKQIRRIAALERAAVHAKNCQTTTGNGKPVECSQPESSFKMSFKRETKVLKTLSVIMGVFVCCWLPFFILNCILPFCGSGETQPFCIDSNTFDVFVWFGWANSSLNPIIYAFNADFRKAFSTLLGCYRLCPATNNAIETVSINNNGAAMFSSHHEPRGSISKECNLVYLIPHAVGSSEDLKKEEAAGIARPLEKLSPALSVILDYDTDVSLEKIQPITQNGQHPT
Chain of Mu-type opioid receptor (P35372 whole entry): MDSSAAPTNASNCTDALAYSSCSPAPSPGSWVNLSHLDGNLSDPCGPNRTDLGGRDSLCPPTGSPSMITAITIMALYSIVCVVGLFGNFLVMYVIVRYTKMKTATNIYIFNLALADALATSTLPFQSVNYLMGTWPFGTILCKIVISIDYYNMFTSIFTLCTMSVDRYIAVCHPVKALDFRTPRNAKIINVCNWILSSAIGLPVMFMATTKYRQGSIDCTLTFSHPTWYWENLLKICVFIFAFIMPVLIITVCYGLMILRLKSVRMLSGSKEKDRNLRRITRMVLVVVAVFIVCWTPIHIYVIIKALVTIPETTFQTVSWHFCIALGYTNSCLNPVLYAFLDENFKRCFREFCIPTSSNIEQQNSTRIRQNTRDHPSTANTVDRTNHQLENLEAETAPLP
Chain of D(3) dopamine receptor (P35462 whole entry): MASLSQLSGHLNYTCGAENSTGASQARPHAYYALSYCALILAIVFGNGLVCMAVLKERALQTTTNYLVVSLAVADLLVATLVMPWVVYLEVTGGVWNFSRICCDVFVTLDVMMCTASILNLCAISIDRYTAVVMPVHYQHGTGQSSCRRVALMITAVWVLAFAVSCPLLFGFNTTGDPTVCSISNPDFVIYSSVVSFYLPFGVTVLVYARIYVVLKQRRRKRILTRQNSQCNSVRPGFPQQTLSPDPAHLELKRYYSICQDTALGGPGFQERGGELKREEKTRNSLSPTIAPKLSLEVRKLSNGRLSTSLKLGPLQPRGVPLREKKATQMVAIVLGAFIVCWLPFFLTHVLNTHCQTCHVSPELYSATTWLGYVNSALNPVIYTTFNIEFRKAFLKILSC
Chain of cGMP-inhibited 3',5'-cyclic phosphodiesterase 3A (Q14432 whole entry): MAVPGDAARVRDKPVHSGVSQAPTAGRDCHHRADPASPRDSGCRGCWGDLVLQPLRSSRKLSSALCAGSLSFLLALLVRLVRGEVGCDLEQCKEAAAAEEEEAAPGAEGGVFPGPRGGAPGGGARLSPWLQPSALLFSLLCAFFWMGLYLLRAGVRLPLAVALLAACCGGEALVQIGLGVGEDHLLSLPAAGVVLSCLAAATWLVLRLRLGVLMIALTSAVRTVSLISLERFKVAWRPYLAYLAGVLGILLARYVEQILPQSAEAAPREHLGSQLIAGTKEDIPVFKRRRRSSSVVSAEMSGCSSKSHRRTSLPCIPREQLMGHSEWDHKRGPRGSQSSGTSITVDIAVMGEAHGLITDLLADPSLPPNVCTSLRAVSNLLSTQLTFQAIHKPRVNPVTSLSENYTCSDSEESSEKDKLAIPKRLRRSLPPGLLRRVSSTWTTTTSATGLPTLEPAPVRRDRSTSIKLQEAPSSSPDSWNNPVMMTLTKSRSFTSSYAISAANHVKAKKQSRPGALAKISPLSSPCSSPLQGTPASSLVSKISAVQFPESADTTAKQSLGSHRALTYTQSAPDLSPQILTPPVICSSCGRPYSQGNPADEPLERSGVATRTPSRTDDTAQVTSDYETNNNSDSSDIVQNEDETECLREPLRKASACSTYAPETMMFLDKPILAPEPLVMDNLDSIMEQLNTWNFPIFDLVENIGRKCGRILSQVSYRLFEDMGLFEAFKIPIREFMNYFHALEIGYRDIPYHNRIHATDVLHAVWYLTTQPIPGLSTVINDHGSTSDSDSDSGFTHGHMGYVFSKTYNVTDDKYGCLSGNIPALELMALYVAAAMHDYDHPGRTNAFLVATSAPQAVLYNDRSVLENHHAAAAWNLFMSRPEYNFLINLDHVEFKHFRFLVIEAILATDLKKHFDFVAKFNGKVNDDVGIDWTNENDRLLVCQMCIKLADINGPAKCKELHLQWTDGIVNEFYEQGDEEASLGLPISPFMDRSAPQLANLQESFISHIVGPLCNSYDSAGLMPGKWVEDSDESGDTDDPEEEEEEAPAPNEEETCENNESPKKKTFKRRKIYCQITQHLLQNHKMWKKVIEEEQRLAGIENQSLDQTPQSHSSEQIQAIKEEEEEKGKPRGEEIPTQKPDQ
Chain of Sodium-dependent dopamine transporter (Q01959 whole entry): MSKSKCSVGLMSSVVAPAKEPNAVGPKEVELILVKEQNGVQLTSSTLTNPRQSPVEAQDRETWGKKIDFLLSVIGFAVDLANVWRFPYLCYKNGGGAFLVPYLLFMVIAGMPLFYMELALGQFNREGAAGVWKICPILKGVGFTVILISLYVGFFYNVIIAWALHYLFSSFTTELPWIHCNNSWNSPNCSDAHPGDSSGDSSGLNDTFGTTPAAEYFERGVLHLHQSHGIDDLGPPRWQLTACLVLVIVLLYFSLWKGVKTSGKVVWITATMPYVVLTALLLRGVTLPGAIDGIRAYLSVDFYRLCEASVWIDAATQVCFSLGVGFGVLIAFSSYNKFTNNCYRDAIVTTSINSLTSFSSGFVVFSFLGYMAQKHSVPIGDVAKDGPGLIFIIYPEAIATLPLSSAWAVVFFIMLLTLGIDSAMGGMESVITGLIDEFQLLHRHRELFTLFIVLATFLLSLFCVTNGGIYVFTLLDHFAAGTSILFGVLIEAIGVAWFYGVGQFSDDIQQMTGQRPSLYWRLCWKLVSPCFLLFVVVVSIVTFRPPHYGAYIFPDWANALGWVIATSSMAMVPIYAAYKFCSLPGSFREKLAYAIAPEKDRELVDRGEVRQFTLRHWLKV
Chain of Voltage-gated inwardly rectifying potassium channel KCNH2 (Q12809 whole entry): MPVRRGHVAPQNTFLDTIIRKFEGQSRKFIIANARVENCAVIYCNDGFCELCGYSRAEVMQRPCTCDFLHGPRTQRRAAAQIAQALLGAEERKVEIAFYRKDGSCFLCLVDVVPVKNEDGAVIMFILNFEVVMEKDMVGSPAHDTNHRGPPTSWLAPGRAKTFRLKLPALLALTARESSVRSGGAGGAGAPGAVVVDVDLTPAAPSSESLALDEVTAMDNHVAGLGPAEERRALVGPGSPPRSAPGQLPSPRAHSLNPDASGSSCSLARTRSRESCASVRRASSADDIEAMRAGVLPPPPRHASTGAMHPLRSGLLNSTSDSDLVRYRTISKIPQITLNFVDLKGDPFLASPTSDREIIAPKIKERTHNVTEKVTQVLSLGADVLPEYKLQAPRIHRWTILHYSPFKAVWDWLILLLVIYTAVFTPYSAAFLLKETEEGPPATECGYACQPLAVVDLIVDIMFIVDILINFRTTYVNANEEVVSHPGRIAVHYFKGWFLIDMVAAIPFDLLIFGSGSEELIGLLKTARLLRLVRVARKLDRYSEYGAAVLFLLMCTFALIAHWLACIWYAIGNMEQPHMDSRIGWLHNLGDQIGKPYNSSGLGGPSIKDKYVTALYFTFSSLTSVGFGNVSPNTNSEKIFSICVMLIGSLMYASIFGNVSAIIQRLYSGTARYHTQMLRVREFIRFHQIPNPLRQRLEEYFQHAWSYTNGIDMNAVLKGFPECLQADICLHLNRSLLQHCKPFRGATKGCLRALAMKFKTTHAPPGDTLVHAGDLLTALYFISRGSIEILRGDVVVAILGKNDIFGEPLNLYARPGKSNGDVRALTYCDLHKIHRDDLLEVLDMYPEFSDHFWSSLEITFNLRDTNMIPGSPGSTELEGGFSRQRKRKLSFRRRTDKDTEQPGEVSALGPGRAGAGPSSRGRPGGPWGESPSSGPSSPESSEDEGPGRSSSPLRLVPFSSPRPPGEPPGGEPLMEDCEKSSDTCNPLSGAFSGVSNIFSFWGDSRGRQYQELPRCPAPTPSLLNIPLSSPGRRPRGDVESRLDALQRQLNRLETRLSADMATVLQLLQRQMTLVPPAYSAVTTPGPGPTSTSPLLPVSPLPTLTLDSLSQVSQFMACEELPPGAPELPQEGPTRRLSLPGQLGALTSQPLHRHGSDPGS

For `CN(C)c1cc(CNCC(C)(C)C)c(O)c2c1C[C@H]1C[C@H]3[C@H](N(C)C)C(O)=C(C(N)=O)C(=O)[C@@]3(O)C(O)=C1C2=O` [OMADACYCLINE], the AC50 (in general, the concentration giving half of the maximal activity seen) on D(3) dopamine receptor is above 30 µM; in test [1], above 30 µM; in test [2], above 30 µM; in test [3] it was 0.25 µM; at D(1A) dopamine receptor, above 30 µM; at Mu-type opioid receptor, above 30 µM. Also, the concentration at half-maximal activity (AC50) is above 30 µM in test [4]; 9.2 µM in test [5]; 0.16 µM in test [6]; above 30 µM in test [7]; above 30 µM in test [8]; above 30 µM on Histamine H3 receptor. Also, the AC50 was above 30 µM in [9]; above 30 µM at Thromboxane A2 receptor [10]; above 30 µM in [11]; above 10 µM on Thromboxane A2 receptor [12]; above 10 µM at Acetylcholinesterase; above 30 µM in [13].
`O=C1[C@H]2CCCC[C@H]2C(=O)N1CCCCN1CCN(c2nsc3ccccc23)CC1` [PEROSPIRONE]: the half-maximal activity concentration (AC50) on D(3) dopamine receptor was 0.003 µM; in test [1], above 30 µM; in [2], 2.3 µM; in test [3], above 30 µM; at D(1A) dopamine receptor, 0.054 µM; at Mu-type opioid receptor, 9.84 µM. The AC50 in test [4] was above 30 µM; in test [5] it was 7.34 µM; in test [6], above 30 µM; in [7] it was 0.003 µM; in [8], 2.98 µM; at Histamine H3 receptor, above 30 µM. Also, the AC50 in test [9] was above 30 µM; on Thromboxane A2 receptor [10], above 30 µM; in [11] it was above 30 µM; at Thromboxane A2 receptor [12], 7.44 µM; on Acetylcholinesterase, above 30 µM; in test [13], 3.31 µM.
As to `CN(C)CCC(c1ccccc1)c1ccccn1` (centres undefined) [PHENIRAMINE], the AC50 (on D(3) dopamine receptor; in test [1]; in test [2]; in test [3]; at D(1A) dopamine receptor; at Mu-type opioid receptor) was above 30 µM each time. Further, the AC50 in test [4] is above 30 µM; in test [5], 24.7 µM; in test [6], above 30 µM; in [7], above 30 µM; in test [8], 26.3 µM; at Histamine H3 receptor, above 30 µM. Further, the AC50 (in test [9]; at Thromboxane A2 receptor [10]; in test [11]; at Thromboxane A2 receptor [12]; at Acetylcholinesterase; in [13]) was above 30 µM in each case.
In the case of `CNC[C@H](O)c1cccc(O)c1` [PHENYLEPHRINE], the AC50 is 4.68 µM at D(3) dopamine receptor; above 30 µM in test [1]; above 30 µM in test [2]; above 30 µM in test [3]; 18.1 µM at D(1A) dopamine receptor; above 30 µM at Mu-type opioid receptor. For the same compound, the half-maximal activity concentration (AC50) was above 30 µM in test [4]; above 30 µM in test [5]; above 30 µM in test [6]; 1.31 µM in test [7]; above 30 µM in [8]; above 30 µM at Histamine H3 receptor. Further, the AC50 is above 30 µM in test [9]; above 30 µM on Thromboxane A2 receptor [10]; above 30 µM in test [11]; above 30 µM at Thromboxane A2 receptor [12]; above 30 µM at Acetylcholinesterase; 29.4 µM in test [13].
Turning to `CC(C)(C)C(=O)NCCCC(=O)O` [PIVAGABINE], the half-maximal activity concentration (AC50) (at D(3) dopamine receptor; in [1]; in test [2]; in [3]; on D(1A) dopamine receptor; on Mu-type opioid receptor) was above 30 µM in each case. In addition, the AC50 (in test [4]; in test [5]; in test [6]; in test [7]; in [8]; on Histamine H3 receptor) was above 30 µM throughout. Also, the AC50 (in test [9]; on Thromboxane A2 receptor [10]; in test [11]; at Thromboxane A2 receptor [12]; at Acetylcholinesterase; in test [13]) was above 30 µM in each case.
Turning to `CCCCNc1ccc(C(=O)OCCN(C)C)cc1` [TETRACAINE], the half-maximal activity concentration (AC50) is 18.5 µM at D(3) dopamine receptor; above 30 µM in test [1]; 25.9 µM in test [2]; above 30 µM in test [3]; above 30 µM at D(1A) dopamine receptor; above 30 µM at Mu-type opioid receptor. Further, the half-maximal activity concentration (AC50) in test [4] was above 30 µM; in test [5] it was above 30 µM; in [6] it was above 30 µM; in [7], above 30 µM; in test [8], above 30 µM; on Histamine H3 receptor it was 24.2 µM. The AC50 in [9] was above 30 µM; at Thromboxane A2 receptor [10], above 30 µM; in test [11], 1.41 µM; at Thromboxane A2 receptor [12], above 30 µM; on Acetylcholinesterase, 8.1 µM; in [13], 21.9 µM.
Turning to `CN1CCN(CCCN2c3ccccc3Sc3ccc(S(=O)(=O)N(C)C)cc32)CC1` [THIOPROPERAZINE], the AC50 at D(3) dopamine receptor is 0.003 µM; in test [1], above 30 µM; in test [2], 0.4 µM; in test [3] it was above 30 µM; at D(1A) dopamine receptor, 0.13 µM; on Mu-type opioid receptor it was 11.6 µM. Also, the AC50 in [4] is above 30 µM; in test [5], 2.66 µM; in [6], 23.6 µM; in test [7] it was 6.09 µM; in test [8] it was 16.8 µM; at Histamine H3 receptor, 13.7 µM. Besides, the concentration at half-maximal activity (AC50) in test [9] was above 30 µM; at Thromboxane A2 receptor [10], above 30 µM; in [11] it was above 30 µM; at Thromboxane A2 receptor [12] it was 9.38 µM; on Acetylcholinesterase, 29 µM; in test [13] it was 13.3 µM.
With `CCCCCCCCCCCCCCCC(=O)OC/C=C(C)/C=C/C=C(C)/C=C/C1=C(C)CCCC1(C)C` [VITAMIN A PALMITATE], the concentration at half-maximal activity (AC50) (on D(3) dopamine receptor; in test [1]; in test [2]; in [3]; on D(1A) dopamine receptor; at Mu-type opioid receptor) was above 30 µM in each case. The half-maximal activity concentration (AC50) (in test [4]; in [5]; in [6]; in test [7]; in test [8]; on Histamine H3 receptor) was above 30 µM each time. In addition, the AC50 (in test [9]; on Thromboxane A2 receptor [10]; in [11]; at Thromboxane A2 receptor [12]; at Acetylcholinesterase; in test [13]) was above 30 µM throughout.

These data come from ChEMBL document CHEMBL5291721, “A preclinical secondary pharmacology resource illuminates target-adverse drug reaction associations of marketed drugs” (Nat Commun, 2023).
